Laboratory results: paper PMC5323493, “Synthesis and pre-clinical evaluation of a new class of high-affinity ^18F-labeled PSMA ligands for detection of prostate cancer by PET imaging” (European Journal of Nuclear Medicine and Molecular Imaging, 2016)
Read-outs that look alike come from different tables or passages of the source. Marks after values point to notes of the source that are not given here. Values belong to the compound of their own block, whether it stands above or below them.

Experiments:
PSMA = target: T1, PSMA (Homo sapiens, UniProt Q04609); experiment: competitive binding assay against 99mTc-MIP-1427 on LNCaP cells; settings: non-radioactive ligands, 1 nM 99mTc-MIP-1427, 1 h
T1 construct: host or cells: LNCaP
Protocol: The human prostate cancer cell line, LNCaP, was obtained from the American Type Culture Collection. Cell culture supplies were from Invitrogen unless otherwise noted. LNCaP cells were maintained in RPMI-1640 medium supplemented with 10 % fetal bovine serum (Hyclone), 4 mM L-glutamine, 1 mM sodium pyruvate, 10 mM N-2-hydroxyethylpiperazine-N-2-ethanesulfonic acid (HEPES), 2.5 mg/mL D-glucose, and 50 μg/mL gentamicin in a humidified incubator at 37 °C/5 % CO2. Cells were removed from flasks for passage or for transfer to 12-well assay plates by incubating them with 0.25 % trypsin/ethylenediaminetetraacetic acid (EDTA).
The 50 % inhibition concentrations (IC50 ) values of the non-radioactive fluorine-containing ligands were determined by screening in a multi-concentration competitive binding assay against ^99mTc- ((7S,12S,16S)-1-(1-(carboxymethyl)-1H-imidazol-2-yl)-2-((1-(carboxymethyl)-1H-imidazol-2-yl)methyl)-9,14-dioxo-2,8,13,15-tetraazaoctadecane-7,12,16,18-tetracarboxylic acid technetium tricarbonyl complex; ^99mTc-MIP-1427) for binding to PSMA on LNCaP cells, according to methods previously described. The LNCaP cells were plated 48 hours prior to the experiment to achieve a density of approximately 5 x 10^5 cells/well (in triplicate) in RPMI-1640 medium supplemented with 0.25 % bovine serum albumin prior to performing the assay. LNCaP cells were incubated for 1 hour with 1 nM ^99mTc-MIP-1427 in serum-free RPMI-1640 medium in the presence of 1–10,000 nM test compounds. Radioactive incubation media was then removed by pipette and the cells were washed twice using 1 mL of ice-cold HEPES buffer. Cells were harvested from the plates and transferred to tubes for radioactive counting using a Packard Cobra II gamma counter. IC50 values were determined by non-linear regression using GraphPad Prism software.

LNCaP xenograft tumor [1] = experiment: μPET/CT imaging of LNCaP xenograft tumor-bearing mice; format: in vivo; settings: for Max. LNCaP Tumor Uptake: image derived calculation (ROI), at time of maximum uptake; for route of clearance: from μPET/CT images; for Max. LNCaP Tumor Uptake Time p.i.: image derived
Excerpt: (§1) All animal studies were approved by the Institutional Animal Care and Use Committee of Weill Cornell Medicine and were undertaken in accordance with the guidelines set forth by the USPHS Policy on Humane Care and Use of Laboratory Animals. Animals were housed under standard conditions in approved facilities with 12-h light/dark cycles. Food and water was provided ad libitum throughout the course of the studies. Male inbred athymic nu/nu mice were purchased from The Jackson Laboratory. For inoculation in mice, LNCaP cells were suspended at 4 x 10^7 cells/mL in a 1:1 mixture of PBS:Matrigel (BD Biosciences). Each mouse was injected in the left flank with 0.25 mL of the cell suspension. The mice were imaged when the tumors reached approximately 200–400 mm^3, while biodistributions were conducted when tumors were in the range 100–400 mm^3.
Specific activity was greater than 190 GBq/μmol. The mice were imaged by μPET/CT (Inveon™; Siemens Medical Solutions, Inc.) at 1 h, 2 h, 4 h and 6 h p.i. ([^18F]fluorinated compounds) or 1 h and 3 h p.i. ([^68Ga]Ga-PSMA-HBED-CC). Total acquisition time was thirty minutes, and a CT scan was obtained either immediately before or immediately after the acquisition for both anatomical co-registration and attenuation correction. The data were reconstructed using the commercial Inveon™ software supplied by the vendor. Tumor uptake was estimated by drawing a region of interest (ROI).

LNCaP xenograft tumor [2] = experiment: ex vivo biodistribution in LNCaP xenograft tumor-bearing mice; settings: for tumor uptake / Max. LNCaP Tumor Uptake: n = 5; for tumor uptake relative to [68Ga]Ga-PSMA-HBED-CC: at the time of maximum tumor uptake; for Max. LNCaP Tumor Uptake Time p.i. / Max. LNCaP Tumor Uptake: biodistribution
Excerpt: as §1
LNCaP xenograft tumor-bearing mice (n = 5 per time point) were injected via the tail vein with a bolus injection of 370 kBq (10 μCi) of either [^18F]RPS-040 or [^18F]RPS-041. The specific activity of the compounds was 341 GBq/μmol and 391 GBq/μmol, respectively. The mice were euthanized by asphyxiation under isofluorane at 1 h, 2 h and 4 h p.i. An additional set of mice (n = 5) was co-administered [^18F]RPS-040 (370 kBq; 10 μCi) and 2-PMPA (approx. 250 μg; 10 mg/kg) and sacrificed at 1 h p.i. to determine the uptake specificity. A full biodistribution study was conducted on all mice, and tissues were excised, weighed and counted in an automated γ-counter. Tissue time-activity values were expressed as percentage injected dose per gram of tissue (%ID/g). Statistical comparisons were performed using the standard Student’s t test for a 95 % confidence interval.

LNCaP xenograft tumor [3] = settings: cited from earlier work
[4] = 1 h p.i., co-administered with 2-PMPA

T1 sequence (Q04609 whole entry): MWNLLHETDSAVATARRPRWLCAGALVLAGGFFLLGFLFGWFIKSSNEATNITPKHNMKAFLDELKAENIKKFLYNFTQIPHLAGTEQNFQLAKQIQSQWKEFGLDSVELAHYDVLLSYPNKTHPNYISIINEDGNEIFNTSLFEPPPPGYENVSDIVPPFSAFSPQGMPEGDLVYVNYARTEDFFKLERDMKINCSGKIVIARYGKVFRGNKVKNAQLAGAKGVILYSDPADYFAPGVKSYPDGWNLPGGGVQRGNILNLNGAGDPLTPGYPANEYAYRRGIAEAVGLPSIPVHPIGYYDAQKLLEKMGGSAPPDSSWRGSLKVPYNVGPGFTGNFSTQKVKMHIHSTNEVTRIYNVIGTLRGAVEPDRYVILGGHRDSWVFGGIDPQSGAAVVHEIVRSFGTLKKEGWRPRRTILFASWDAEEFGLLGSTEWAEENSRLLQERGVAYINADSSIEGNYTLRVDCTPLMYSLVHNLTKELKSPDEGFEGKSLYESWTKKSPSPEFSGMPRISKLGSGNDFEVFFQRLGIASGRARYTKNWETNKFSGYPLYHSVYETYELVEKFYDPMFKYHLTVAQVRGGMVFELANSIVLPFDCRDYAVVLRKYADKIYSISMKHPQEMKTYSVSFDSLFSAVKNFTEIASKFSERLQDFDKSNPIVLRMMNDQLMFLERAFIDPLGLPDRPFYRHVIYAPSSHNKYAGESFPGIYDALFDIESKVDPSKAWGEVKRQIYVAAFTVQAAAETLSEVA

SMILES: O=C(O)CC[C@H](NC(=O)N[C@@H](CCCCNC(=O)Nc1ccc(-c2cn(CCF)nn2)cc1)C(=O)O)C(=O)O [RPS-041]
IC50 (PSMA): 3.2 nM
Max. LNCaP Tumor Uptake (LNCaP xenograft tumor [1]): 12.51 %ID/g
tumor-to-blood ratio (LNCaP xenograft tumor [2]; 1 h p.i.): 20.78 ± 7.87
tumor-to-blood ratio relative to [68Ga]Ga-PSMA-HBED-CC (LNCaP xenograft tumor [2]; 1 h p.i.): more than two-fold
tumor-to-kidney ratio relative to [68Ga]Ga-PSMA-HBED-CC (LNCaP xenograft tumor [2]; 1 h p.i.): twelve-fold greater
contrast (tumor-to-background) relative to [18F]RPS-040 (LNCaP xenograft tumor [2]; 2 h p.i.): two-fold greater
uptake in the kidneys (LNCaP xenograft tumor [2]; 2 h p.i.): 23.93 ± 5.45 %ID/g
uptake in the liver (LNCaP xenograft tumor [2]; 2 h p.i.): 2.51 ± 0.21 %ID/g
uptake in the spleen (LNCaP xenograft tumor [2]; 2 h p.i.): 1.13 ± 0.47 %ID/g
tumor-to-blood ratio (LNCaP xenograft tumor [2]; 4 h p.i.): 118.4 ± 69.4
tumor uptake relative to [68Ga]Ga-PSMA-HBED-CC (LNCaP xenograft tumor [2]): nearly two-fold greater
Max. LNCaP Tumor Uptake Time p.i. (LNCaP xenograft tumor [2]): 2 h
Max. LNCaP Tumor Uptake (LNCaP xenograft tumor [2]; 2 h p.i.): 10.86 ± 1.03 %ID/g
Max. LNCaP Tumor Uptake (LNCaP xenograft tumor [2]; 2 h p.i., listed as [^18F]RPS-041): > 10 %ID/g

SMILES: O=C(O)CC[C@H](NC(=O)N[C@@H](CCCCNC(=O)Nc1cccc(OCc2cn(CCF)nn2)c1)C(=O)O)C(=O)O [RPS-043]
IC50 (PSMA): 36.5 nM
Max. LNCaP Tumor Uptake Time p.i. (LNCaP xenograft tumor [1]): 2 h
Max. LNCaP Tumor Uptake (LNCaP xenograft tumor [1]): 9.04 ± 1.88^c %ID/g

SMILES: O=C(O)CC[C@H](NC(=O)N[C@@H](CCCCNC(=O)Nc1ccc(I)cc1)C(=O)O)C(=O)O [MIP-1095]
Max. LNCaP Tumor Uptake (LNCaP xenograft tumor [3]): 34.3 ± 12.7^a %ID/g
Max. LNCaP Tumor Uptake Time p.i. (LNCaP xenograft tumor [3]): 4 h
IC50 (PSMA): 0.3 nM

SMILES: O=C(O)CC[C@H](NC(=O)N[C@@H](CCCCNC(=O)Nc1ccc(OCc2cn(CCF)nn2)cc1)C(=O)O)C(=O)O [RPS-038]
IC50 (PSMA): 21.3 nM
Max. LNCaP Tumor Uptake Time p.i. (LNCaP xenograft tumor [1]): 2 h
Max. LNCaP Tumor Uptake (LNCaP xenograft tumor [1]): 8.87 ± 0.64^c %ID/g

Now from value to compound, other results behind:

IC50 (PSMA): 7 nM
Max. LNCaP Tumor Uptake (LNCaP xenograft tumor [1]): 14.30 %ID/g
tumor-to-blood ratio (LNCaP xenograft tumor [2]; 1 h p.i.): 28.8 ± 8.06
tumor-to-blood ratio relative to [68Ga]Ga-PSMA-HBED-CC (LNCaP xenograft tumor [2]; 1 h p.i.): three-fold greater
tumor-to-kidney ratio relative to [68Ga]Ga-PSMA-HBED-CC (LNCaP xenograft tumor [2]; 1 h p.i.): ten
kidneys uptake (LNCaP xenograft tumor [2]; [4]): 5.95 ± 1.65 %ID/g
spleen uptake (LNCaP xenograft tumor [2]; [4]): 0.32 ± 0.05 %ID/g
tumor uptake (LNCaP xenograft tumor [2]; 1 h p.i., co-administered with 2-PMPA (10 mg/kg)): 1.75 ± 0.15 %ID/g
kidneys uptake (LNCaP xenograft tumor [2]; 1 h p.i., unblocked): 74.24 ± 10.71 %ID/g
spleen uptake (LNCaP xenograft tumor [2]; 1 h p.i., unblocked): 4.97 ± 1.55 %ID/g
tumor uptake (LNCaP xenograft tumor [2]; 1 h p.i., unblocked): 12.69 ± 1.56 %ID/g
uptake in the kidneys (LNCaP xenograft tumor [2]; 2 h p.i.): 60.94 ± 8.06 %ID/g
uptake in the liver (LNCaP xenograft tumor [2]; 2 h p.i.): 4.72 ± 0.93 %ID/g
uptake in the spleen (LNCaP xenograft tumor [2]; 2 h p.i.): 3.23 ± 1.26 %ID/g
tumor-to-blood ratio (LNCaP xenograft tumor [2]; 4 h p.i.): 92.93 ± 75.67
tumor uptake relative to [68Ga]Ga-PSMA-HBED-CC (LNCaP xenograft tumor [2]): more than two-fold greater
Max. LNCaP Tumor Uptake Time p.i. (LNCaP xenograft tumor [2]): 2 h
Max. LNCaP Tumor Uptake (LNCaP xenograft tumor [2]; 2 h p.i.): 14.30 ± 2.49 %ID/g
Max. LNCaP Tumor Uptake (LNCaP xenograft tumor [2]; 2 h p.i., listed as [^18F]RPS-040): > 10 %ID/g
SMILES: O=C(O)CC[C@H](NC(=O)N[C@@H](CCCCNC(=O)Nc1cccc(-c2cn(CCF)nn2)c1)C(=O)O)C(=O)O [RPS-040]

IC50 (PSMA): 14 nM
Max. LNCaP Tumor Uptake Time p.i. (LNCaP xenograft tumor [1]): 2 h
Max. LNCaP Tumor Uptake (LNCaP xenograft tumor [1]): 5.89 ± 0.27^c %ID/g
SMILES: O=C(O)CC[C@H](NC(=O)N[C@@H](CCCCNC(=O)Nc1ccccc1OCc1cn(CCF)nn1)C(=O)O)C(=O)O [RPS-039]
route of clearance (LNCaP xenograft tumor [1]): clearance via the hepatobiliary pathway in addition to renal excretion

Max. LNCaP Tumor Uptake Time p.i. (LNCaP xenograft tumor [1]): 1 h
Max. LNCaP Tumor Uptake (LNCaP xenograft tumor [1]): 5.71 ± 0.61^c %ID/g
SMILES: O=C(O)CCC(NC(=O)NC(CCCCNC(=O)c1ccc([18F])nc1)C(=O)O)C(=O)O (centres unmarked) [DCFPyL, 2-(3-{1-carboxy-5-[(6-[18F]fluoro-pyridine-3-carbonyl)-amino]-pentyl}-ureido)-pentanedioic acid, reference compound]
maximum standardized uptake value (SUVmax) (LNCaP xenograft tumor [3]; LNCaP tumor xenografts, 1 h p.i.): 1.1 ± 0.1

IC50 (PSMA): 10.2 nM
Max. LNCaP Tumor Uptake Time p.i. (LNCaP xenograft tumor [1]): 2 h
Max. LNCaP Tumor Uptake (LNCaP xenograft tumor [1]): 10.06 ± 1.33^c %ID/g
SMILES: O=C(O)CC[C@H](NC(=O)N[C@@H](CCCCNC(=O)Nc1ccccc1-c1cn(CCF)nn1)C(=O)O)C(=O)O [RPS-042]
route of clearance (LNCaP xenograft tumor [1]): clearance via the hepatobiliary pathway in addition to renal excretion
